# Source: patent US20250027041A1, “COMPOSITION FOR INDUCING TRANSDIFFERENTIATION AND STEM CELLS TREATED THEREWITH” (YJ CERAPEUTICS INC., priority 2021, published 2025)
# Columns and labels:
# human UCB-MSCs = test: RNA-seq gene expression; assay type: cell-based; settings: UCB-MSCs treated with YJ102 30 μM for 3 days
# Description: The expression gene profile of ciNSC5, which was transdifferentiated from human UCB-MSCs by treating YJ102 for 5 days, was analyzed using genome-wide RNA-seq. Specifically, 1×10^5 human UCB-MSCs were dispensed in a 60 mm culture dish (a control group dispensed at 1.67×10^4), the cells were treated with YJ102 dissolved at 30 mM in DMSO at a concentration of 30 μM (the control group treated with DMSO), and incubated at 37° C. for 2, 3, or 5 days. Thereafter, the culture medium was removed, washed with PBS, and the cells were collected with a scraper and transferred to a microcentrifuge tube. PBS was removed by centrifugation, and the cells were added with 500 μl of a Tri-RNA Reagent and mixed well by pipetting. The mixture was added with 100 μl of chloroform, the tube was mixed by vortexing for 15 seconds, and then centrifuged at 4° C. at 14,000 rpm for 20 minutes. Thereafter, the upper aqueous phase was transferred to a new microcentrifuge tube using a pipette, and added and mixed with 550 μl of isopropanol. The mixture was centrifuged at 14,000 rpm at 4° C. for 20 minutes, the supernatant was discarded, and the pellet was washed with 1 ml of 70% ethanol. […] The pellet was resuspended in 100 μl RNase-free DIW, centrifuged at 14,000 rpm for 10 minutes at 4° C. to remove the supernatant, air-dried, and then the RNA concentration was quantified using nanodrop. […]
# UCB-MSCs = test: CellTiter-Glo proliferation assay; assay type: cell-based, human; settings: 10, 20, or 40 μM; 3 or 5 days
# Description: Thereafter, 100 μl of a CellTiter-Glo reagent prepared by mixing a CellTiter-Glo Buffer with a CellTiter-Glo substrate was added to each well of a 96-well plate, covered with a plate cover, and incubated at room temperature for 30 minutes.
# BM-MSC = test: Tuj1 immunochemical assay, BM-MSC; assay type: cell-based, human; settings: 10, 20 or 30 μM, 5 days
# Description: To determine whether transdifferentiation into ciNSC5, neural progenitor cells, occurred similarly even in MSCs of different origins when human UCB-MSCs were treated with YJ101, YJ102, or YJ103 for 5 days, the expression of neuronal markers in differentiated ciNSC5 was confirmed by immunochemical assay using MSCs from human adipose-derived mesenchymal stem cells (AD-MSCs), human bone marrow-derived mesenchymal stem cells ([…]) and human umbilical cord blood-derived mesenchymal stem cells (UCB-MSCs; Promo Cells). Specifically, AD-MSC (StemPro™ Human Adipose-Derived Stem Cell, Gibco, Passage #6) was incubated in a MesenPRO RS™ medium, BM-MSC (ATCC, Passage #6) was incubated in a Mesenchymal Stem Cell Basal Medium for Adipose, Umbilical and Bone Marrow-derived MSC (Cat. PCS-500-030, ATCC) medium, and UCB-MSC (Promo Cell, Passage #6) was incubated in a CellCor™ CD MSC (Cat. YSP001, Xell Therapeutics) medium, and then dispensed at 2.1×10^4 cells/well in a 12-well plate with an 18 mm cover glass (circular) (DMSO control group was dispensed at 3.5×10^3 cells/well). […] The culture medium was removed, washed with PBS, and then fixed with 4% paraformaldehyde at room temperature for 10 minutes. After washed three times with PBS, the cells were permeabilized with PBS-T containing 0.5% Triton X-100 for 10 minutes, washed with PBS-T three times for 10 minutes each, and then blocked with a blocking solution (PBS-T containing 5% BSA and 5% goat serum) for 1 hour. Thereafter, the cells were treated with anti-Tuj1 antibody (Cat. 801201, BioLegend) diluted 1/5000 in a blocking solution and incubated at 4° C. overnight. The next day, the cells were washed 10 times for 10 minutes each with PBS-T, and then treated with anti-mouse IgG-cy3 diluted 1/2000 in a blocking solution, and incubated for 1 hour in dark conditions. Next, the cells were washed 10 times for 10 minutes each with PBS-T, mounted with a mounting solution containing DAPI, and then observed with a confocal microscope.
smiles,measurement,setting,value
CCc1ccc(N(C(=O)COC)c2nc3cc(Cl)ccc3o2)cc1 [YJ102],expression of cell division-related genes (RNA-seq),human UCB-MSCs,decreased
same,expression of nervous system-related genes (RNA-seq),human UCB-MSCs,increased
same,cell proliferation (CellTiter-Glo),UCB-MSCs,reduced cell proliferation in a concentration-dependent manner
same,expression of Tuj1,BM-MSC,increased
